Results from ChEMBL document CHEMBL2074446, “Contribution of P-glycoprotein to efflux of ramosetron, a 5-HT3 receptor antagonist, across the blood-brain barrier” (J Pharm Pharmacol, 2002).

Columns and labels:
Assay type in all cases: functional, cell-based
[1] = target: ATP-dependent translocase ABCB1 (Mus musculus, UniProt P21447); experiment: TP_TRANSPORTER: uptake in L cell and LV500 cell
[2] = target: ATP-dependent translocase ABCB1 (Mus musculus, UniProt P06795); experiment: TP_TRANSPORTER: uptake, not inhibited by Verapamil in MBEC4 cell
Sequence of ATP-dependent translocase ABCB1 (Mus musculus, UniProt P06795) (P06795 whole entry): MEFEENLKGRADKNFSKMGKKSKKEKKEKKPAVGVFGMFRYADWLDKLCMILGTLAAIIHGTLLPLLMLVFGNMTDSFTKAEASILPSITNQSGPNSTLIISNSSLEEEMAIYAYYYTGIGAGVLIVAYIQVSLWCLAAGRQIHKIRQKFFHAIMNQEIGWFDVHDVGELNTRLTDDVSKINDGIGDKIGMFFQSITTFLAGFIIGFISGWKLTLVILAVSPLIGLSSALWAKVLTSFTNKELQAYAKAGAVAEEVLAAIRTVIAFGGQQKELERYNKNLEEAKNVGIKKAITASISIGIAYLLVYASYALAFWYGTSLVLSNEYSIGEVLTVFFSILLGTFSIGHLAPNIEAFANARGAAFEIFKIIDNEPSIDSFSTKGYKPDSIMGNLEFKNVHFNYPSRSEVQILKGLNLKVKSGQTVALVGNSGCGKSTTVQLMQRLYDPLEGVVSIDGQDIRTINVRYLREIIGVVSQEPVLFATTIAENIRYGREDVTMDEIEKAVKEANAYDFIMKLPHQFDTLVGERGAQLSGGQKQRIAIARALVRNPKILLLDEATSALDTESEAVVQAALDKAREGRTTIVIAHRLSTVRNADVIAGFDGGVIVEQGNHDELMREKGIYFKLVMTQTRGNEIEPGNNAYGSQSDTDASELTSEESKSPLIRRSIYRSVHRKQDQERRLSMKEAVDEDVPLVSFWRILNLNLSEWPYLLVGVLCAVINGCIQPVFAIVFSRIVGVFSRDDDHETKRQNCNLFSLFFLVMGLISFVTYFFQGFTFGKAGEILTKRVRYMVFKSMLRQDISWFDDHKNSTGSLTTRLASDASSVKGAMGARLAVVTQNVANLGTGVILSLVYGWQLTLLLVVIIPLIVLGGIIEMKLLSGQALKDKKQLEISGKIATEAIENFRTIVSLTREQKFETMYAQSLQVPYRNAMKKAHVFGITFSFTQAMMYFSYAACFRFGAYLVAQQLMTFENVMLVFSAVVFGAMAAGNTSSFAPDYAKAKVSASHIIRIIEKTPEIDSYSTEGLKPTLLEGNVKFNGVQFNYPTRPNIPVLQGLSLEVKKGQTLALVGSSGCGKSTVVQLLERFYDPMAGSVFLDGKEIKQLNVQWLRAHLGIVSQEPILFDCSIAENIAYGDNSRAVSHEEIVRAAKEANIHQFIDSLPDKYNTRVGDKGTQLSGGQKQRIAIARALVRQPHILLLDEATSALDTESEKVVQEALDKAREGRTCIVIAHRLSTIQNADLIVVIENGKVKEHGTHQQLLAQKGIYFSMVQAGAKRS

[3] = target: ATP-dependent translocase ABCB1 (Homo sapiens, UniProt P08183); experiment: TP_TRANSPORTER: uptake in LLC-PK1 cell and LLC-GA5-COL300 cells; conditions: pig
Sequence of ATP-dependent translocase ABCB1 (Homo sapiens, UniProt P08183) (P08183 whole entry): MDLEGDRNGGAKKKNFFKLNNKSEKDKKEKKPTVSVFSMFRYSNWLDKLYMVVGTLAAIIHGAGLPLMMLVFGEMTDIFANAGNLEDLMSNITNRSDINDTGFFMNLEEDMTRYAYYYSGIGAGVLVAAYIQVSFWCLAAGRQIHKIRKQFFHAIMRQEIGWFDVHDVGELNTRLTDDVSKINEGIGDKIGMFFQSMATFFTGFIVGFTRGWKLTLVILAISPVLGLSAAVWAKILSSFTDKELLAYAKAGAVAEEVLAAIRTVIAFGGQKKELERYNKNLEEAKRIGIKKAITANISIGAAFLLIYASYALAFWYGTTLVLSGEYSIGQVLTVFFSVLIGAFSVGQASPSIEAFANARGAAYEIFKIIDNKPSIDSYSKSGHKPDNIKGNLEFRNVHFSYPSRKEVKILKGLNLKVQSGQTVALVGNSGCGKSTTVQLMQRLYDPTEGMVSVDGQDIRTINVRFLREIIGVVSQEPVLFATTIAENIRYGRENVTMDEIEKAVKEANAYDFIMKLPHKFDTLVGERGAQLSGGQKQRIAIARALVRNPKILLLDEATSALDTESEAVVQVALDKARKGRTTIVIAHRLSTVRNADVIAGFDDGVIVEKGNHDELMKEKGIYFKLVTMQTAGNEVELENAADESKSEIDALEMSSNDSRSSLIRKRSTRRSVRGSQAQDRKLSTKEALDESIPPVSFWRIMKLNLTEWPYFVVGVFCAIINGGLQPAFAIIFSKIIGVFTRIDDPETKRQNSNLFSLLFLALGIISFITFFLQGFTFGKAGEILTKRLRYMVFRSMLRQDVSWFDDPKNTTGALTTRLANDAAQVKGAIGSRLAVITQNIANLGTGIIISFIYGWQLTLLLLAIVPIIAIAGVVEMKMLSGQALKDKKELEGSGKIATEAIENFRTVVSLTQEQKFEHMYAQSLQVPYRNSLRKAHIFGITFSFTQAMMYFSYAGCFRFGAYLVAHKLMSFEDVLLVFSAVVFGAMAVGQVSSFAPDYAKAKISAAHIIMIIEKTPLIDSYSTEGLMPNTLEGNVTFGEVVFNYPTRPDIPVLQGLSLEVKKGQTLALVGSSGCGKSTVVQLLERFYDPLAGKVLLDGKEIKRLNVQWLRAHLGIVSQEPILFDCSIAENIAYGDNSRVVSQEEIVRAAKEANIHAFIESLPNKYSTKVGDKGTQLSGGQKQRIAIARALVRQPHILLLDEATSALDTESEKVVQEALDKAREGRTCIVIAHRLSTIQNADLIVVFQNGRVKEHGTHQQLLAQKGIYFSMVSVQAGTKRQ

Sequence of ATP-dependent translocase ABCB1 (Mus musculus, UniProt P21447) (P21447 whole entry): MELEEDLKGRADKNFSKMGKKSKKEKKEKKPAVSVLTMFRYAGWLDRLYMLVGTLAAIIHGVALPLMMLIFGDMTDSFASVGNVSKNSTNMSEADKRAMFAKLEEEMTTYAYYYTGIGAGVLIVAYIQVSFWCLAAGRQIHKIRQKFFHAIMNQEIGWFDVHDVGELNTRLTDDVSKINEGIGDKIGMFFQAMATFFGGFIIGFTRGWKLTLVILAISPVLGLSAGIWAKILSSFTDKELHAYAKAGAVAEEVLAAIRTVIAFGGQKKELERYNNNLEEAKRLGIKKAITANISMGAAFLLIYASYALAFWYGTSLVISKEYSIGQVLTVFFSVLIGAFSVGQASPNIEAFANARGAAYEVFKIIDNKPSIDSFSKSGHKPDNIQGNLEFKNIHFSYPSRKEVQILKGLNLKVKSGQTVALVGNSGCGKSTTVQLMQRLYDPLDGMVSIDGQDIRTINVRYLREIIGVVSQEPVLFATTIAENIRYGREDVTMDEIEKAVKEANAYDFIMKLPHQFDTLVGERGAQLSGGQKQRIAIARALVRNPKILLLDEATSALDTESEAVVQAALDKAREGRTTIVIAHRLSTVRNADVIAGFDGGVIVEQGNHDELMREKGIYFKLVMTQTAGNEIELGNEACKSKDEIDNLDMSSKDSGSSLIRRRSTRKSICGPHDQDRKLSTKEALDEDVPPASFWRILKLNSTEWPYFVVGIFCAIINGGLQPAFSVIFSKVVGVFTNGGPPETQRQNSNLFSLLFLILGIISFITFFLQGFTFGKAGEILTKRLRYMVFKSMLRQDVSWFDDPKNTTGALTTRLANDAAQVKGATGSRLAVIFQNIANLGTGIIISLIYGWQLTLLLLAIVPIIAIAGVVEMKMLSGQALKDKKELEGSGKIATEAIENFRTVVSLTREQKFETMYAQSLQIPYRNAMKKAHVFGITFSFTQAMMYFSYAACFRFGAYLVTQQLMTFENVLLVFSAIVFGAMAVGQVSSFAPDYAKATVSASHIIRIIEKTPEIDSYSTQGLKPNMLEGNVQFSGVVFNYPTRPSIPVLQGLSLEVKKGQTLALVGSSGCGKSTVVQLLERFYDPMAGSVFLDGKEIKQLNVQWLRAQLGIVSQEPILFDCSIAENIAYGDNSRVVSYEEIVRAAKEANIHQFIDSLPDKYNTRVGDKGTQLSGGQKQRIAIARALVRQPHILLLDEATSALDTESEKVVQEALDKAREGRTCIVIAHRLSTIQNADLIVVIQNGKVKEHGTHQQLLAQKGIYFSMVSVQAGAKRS

## Cn1cc(C(=O)[C@@H]2CCc3nc[nH]c3C2)c2ccccc21 [RAMOSETRON]
[1]
  Activity: substrate [+]
[2]
  Activity: is not a substrate [-]
[3]
  Activity: substrate [+]
